According to publication PMC11345841, “Exploring 2-Sulfonylpyrimidine Warheads as Acrylamide Surrogates for Targeted Covalent Inhibition: A BTK Story” (Journal of Medicinal Chemistry, 2024):
Residue numbers refer to the chain shown, from its start. Read-outs that look alike come from different tables or passages of the source.

Assays:
FLT3(D835H) = target: T1, FLT3(D835H) (Homo sapiens, UniProt P36888, D835H); test: KINOMEscan ScanTK; type: binding
T1 construct: purchased Eurofins DiscoverX KINOMEscan (scanTK)
T1 sequence (P36888 27-993 D835H): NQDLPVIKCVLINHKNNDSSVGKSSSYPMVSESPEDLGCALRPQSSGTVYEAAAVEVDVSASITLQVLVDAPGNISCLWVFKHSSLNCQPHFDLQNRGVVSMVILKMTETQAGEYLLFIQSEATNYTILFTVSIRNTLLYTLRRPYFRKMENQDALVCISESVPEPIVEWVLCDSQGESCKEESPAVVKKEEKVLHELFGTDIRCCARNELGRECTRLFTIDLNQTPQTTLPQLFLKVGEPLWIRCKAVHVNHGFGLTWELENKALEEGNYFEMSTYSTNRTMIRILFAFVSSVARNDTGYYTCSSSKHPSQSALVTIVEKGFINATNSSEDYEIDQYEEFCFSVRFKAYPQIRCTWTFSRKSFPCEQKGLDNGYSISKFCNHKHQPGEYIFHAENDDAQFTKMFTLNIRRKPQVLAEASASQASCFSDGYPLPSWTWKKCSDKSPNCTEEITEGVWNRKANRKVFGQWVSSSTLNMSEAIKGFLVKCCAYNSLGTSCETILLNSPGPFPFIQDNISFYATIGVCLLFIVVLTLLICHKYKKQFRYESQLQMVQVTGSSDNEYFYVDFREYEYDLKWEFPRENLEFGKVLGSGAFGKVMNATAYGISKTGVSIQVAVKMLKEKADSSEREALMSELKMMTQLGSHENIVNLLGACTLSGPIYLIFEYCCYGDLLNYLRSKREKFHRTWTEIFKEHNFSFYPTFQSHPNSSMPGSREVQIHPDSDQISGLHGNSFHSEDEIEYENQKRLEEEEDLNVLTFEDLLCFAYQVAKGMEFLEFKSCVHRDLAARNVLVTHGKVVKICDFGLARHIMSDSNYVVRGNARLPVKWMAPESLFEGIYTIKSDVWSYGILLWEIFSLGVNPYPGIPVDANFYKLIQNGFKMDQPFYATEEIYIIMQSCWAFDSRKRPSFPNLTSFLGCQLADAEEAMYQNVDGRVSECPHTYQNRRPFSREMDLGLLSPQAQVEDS

TRKC = target: T2, TRKC (Homo sapiens, UniProt Q16288); test: KINOMEscan ScanTK; type: binding; conditions: TRKC
T2 construct: purchased Eurofins DiscoverX KINOMEscan (scanTK)

[1] = target: T3, TYK2(JH2domain-pseudokinase) (Homo sapiens, UniProt P29597); test: KINOMEscan ScanTK; type: binding
T3 construct: TYK2(JH2domain-pseudokinase); purchased Eurofins DiscoverX KINOMEscan (scanTK)

FLT3(N841I) = target: T4, FLT3(N841I) (Homo sapiens, UniProt P36888, N841I); test: KINOMEscan ScanTK; type: binding
T4 construct: purchased Eurofins DiscoverX KINOMEscan (scanTK)
T4 sequence (P36888 27-993 N841I): T1 sequence (P36888 27-993 D835H) with H809D, N815I

wild-type BTK = wild-type BTK (Homo sapiens, UniProt Q06187); test: NanoBRET target engagement assay in HEK293 cells; conditions: HEK293 cells, 1 h treatment
EGFR = target: T5, EGFR (Homo sapiens, UniProt P00533); test: KINOMEscan ScanTK; type: binding
T5 construct: purchased Eurofins DiscoverX KINOMEscan (scanTK)

FLT3(ITD,D835V) = test: KINOMEscan ScanTK; type: binding
ERBB4 = target: T6, ERBB4 (Homo sapiens, UniProt Q15303); test: KINOMEscan ScanTK; type: binding
T6 construct: purchased Eurofins DiscoverX KINOMEscan (scanTK)

RET = target: T7, RET (Homo sapiens, UniProt P07949); test: KINOMEscan ScanTK; type: binding
T7 construct: purchased Eurofins DiscoverX KINOMEscan (scanTK)
T7 sequence (P07949 29-1114): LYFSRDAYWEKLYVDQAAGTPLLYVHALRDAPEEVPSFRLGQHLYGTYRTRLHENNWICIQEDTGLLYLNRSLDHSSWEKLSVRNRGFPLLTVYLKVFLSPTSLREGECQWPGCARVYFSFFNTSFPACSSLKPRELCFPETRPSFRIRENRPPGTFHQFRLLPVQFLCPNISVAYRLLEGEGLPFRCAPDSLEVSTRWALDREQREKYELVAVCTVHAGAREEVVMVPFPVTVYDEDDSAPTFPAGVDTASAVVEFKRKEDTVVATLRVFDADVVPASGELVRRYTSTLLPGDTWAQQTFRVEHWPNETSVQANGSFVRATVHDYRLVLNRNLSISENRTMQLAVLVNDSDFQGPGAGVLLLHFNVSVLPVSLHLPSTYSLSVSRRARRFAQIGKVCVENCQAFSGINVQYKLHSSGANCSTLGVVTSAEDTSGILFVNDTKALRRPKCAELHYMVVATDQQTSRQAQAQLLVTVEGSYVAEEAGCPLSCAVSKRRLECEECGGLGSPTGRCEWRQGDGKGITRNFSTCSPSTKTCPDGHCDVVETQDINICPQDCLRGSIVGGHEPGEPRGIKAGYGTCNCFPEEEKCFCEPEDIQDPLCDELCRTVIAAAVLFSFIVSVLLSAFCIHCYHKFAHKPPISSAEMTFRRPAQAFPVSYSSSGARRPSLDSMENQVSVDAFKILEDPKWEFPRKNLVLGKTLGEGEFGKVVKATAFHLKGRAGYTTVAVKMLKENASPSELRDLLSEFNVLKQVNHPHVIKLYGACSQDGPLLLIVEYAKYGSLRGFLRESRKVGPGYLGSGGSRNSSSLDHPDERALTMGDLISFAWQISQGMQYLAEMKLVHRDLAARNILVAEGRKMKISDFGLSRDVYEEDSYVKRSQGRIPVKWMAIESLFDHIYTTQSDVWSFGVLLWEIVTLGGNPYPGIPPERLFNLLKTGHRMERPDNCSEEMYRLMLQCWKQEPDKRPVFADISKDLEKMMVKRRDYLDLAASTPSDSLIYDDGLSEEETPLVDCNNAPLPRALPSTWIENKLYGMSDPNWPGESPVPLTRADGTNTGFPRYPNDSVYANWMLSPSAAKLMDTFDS

T6 sequence (Q15303 26-1308): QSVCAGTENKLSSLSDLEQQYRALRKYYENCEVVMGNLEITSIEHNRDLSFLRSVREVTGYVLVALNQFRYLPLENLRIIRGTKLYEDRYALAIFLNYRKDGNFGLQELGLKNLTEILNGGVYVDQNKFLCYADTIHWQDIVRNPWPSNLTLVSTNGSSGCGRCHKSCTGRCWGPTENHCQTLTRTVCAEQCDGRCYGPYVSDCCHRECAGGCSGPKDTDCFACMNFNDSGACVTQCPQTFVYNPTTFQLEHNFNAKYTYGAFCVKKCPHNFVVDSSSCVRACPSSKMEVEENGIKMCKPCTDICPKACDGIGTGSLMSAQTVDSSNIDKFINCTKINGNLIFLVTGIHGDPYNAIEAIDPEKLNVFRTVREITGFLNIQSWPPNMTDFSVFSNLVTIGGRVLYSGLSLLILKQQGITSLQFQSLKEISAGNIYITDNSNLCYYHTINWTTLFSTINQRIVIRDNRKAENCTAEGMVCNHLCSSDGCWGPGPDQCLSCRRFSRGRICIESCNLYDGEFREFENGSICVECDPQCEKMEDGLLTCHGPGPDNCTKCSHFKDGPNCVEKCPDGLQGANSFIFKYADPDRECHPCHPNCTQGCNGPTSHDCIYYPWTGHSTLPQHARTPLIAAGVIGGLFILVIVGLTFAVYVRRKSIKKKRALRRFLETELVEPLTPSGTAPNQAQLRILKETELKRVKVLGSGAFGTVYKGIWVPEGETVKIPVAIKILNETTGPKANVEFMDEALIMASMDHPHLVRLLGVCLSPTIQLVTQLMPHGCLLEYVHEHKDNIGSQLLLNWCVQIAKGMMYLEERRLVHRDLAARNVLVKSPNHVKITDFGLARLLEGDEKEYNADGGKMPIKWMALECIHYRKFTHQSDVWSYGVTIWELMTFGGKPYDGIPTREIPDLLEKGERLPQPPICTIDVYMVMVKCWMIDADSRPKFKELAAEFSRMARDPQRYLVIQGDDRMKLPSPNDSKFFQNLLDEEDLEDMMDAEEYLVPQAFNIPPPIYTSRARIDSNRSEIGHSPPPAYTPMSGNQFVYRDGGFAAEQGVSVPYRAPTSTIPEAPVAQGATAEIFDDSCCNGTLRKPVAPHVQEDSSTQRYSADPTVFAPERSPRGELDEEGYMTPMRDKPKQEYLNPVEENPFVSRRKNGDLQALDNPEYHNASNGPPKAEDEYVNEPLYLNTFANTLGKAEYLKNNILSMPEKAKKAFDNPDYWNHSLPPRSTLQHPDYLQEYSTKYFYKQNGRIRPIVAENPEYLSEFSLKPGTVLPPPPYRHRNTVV
T3 sequence (P29597 575-869 limits assumed): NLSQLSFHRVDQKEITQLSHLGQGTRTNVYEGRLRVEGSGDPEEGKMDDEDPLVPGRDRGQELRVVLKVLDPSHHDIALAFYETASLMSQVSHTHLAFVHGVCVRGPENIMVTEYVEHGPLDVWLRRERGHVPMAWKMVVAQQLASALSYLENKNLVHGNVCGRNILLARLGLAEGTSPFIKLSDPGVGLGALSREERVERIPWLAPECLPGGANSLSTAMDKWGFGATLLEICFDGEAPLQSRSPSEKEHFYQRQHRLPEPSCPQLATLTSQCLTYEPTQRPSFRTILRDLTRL
T5 sequence (P00533 25-1210): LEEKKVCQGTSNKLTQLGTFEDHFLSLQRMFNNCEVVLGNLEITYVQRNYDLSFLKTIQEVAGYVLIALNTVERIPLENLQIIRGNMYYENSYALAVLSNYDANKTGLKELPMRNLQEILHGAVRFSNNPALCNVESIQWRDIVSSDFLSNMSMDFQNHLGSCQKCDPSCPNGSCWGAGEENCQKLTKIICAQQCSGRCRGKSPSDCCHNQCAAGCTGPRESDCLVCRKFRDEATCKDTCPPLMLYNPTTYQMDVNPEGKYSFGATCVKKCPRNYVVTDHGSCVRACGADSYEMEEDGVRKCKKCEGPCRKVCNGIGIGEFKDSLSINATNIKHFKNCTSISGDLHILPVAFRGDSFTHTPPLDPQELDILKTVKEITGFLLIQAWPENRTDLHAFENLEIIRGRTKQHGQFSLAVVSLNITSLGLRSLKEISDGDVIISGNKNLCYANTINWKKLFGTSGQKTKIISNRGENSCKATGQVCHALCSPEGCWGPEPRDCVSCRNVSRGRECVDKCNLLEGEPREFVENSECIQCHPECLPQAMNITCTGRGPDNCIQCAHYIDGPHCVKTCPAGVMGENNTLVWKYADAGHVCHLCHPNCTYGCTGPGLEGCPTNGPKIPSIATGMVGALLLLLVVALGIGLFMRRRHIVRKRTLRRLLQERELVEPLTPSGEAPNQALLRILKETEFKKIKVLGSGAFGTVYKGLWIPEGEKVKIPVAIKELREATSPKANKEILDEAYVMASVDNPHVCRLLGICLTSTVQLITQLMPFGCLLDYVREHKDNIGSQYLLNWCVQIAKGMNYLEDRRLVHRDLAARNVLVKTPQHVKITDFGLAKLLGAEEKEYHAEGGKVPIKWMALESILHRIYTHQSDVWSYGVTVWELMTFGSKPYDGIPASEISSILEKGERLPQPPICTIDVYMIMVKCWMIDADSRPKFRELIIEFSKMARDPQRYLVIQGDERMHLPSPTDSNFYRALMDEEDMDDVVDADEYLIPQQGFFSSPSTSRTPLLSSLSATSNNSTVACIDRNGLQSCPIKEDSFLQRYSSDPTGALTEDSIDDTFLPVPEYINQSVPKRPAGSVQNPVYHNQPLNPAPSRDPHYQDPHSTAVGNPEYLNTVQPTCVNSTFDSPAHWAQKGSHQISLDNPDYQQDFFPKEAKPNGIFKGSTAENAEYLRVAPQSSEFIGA
T2 sequence (Q16288 32-839): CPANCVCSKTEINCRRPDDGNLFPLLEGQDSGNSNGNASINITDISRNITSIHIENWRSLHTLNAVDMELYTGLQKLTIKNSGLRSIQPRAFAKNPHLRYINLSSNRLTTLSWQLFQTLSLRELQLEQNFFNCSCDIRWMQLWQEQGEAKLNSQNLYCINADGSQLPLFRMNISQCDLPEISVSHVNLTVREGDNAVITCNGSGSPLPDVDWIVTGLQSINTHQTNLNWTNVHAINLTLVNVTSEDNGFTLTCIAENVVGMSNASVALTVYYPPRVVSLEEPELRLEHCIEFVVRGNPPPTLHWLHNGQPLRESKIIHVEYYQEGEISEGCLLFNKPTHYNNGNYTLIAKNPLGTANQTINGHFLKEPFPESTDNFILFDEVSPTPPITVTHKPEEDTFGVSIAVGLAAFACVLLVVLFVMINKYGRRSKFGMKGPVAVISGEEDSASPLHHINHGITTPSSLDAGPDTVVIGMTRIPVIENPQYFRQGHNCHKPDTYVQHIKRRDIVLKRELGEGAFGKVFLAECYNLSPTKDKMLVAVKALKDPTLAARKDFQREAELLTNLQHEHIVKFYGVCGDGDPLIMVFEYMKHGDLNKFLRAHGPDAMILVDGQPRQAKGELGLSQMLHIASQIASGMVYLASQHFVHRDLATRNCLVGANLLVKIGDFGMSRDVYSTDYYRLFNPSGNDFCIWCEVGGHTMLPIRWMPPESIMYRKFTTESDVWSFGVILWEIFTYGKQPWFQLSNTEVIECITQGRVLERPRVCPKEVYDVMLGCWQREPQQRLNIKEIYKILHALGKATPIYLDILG

**Q.** What does the source list for `CNC(=O)c1cnc(S(C)(=O)=O)nc1N1CCCC(n2nc(-c3ccc(Oc4ccccc4)cc3)c3c(N)ncnc32)C1` (stereo not shown) [Compound 8d, 4-(3-(4-Amino-3-(4-phenoxyphenyl)-1H-pyrazolo[3,4-d]pyrimidin-1-yl)piperidin-1-yl)-N-methyl-2-(methylsulfonyl)pyrimidine-5-carboxamide]?
**A.** difference in %Control from compound Ib at 1 µM (FLT3(D835H); @1000nM): 47%; remaining binding at 1 µM (FLT3(D835H); @1000nM, read-out: %Control): 83%; remaining binding at 1 µM (FLT3(D835H); read-out: %Control @1000nM): 83%; difference in %Control versus compound Ib at 1 µM (TRKC; @1000nM): -3%; remaining binding at 1 µM (TRKC; @1000nM, read-out: %Control): 92%; remaining binding at 1 µM (TRKC; read-out: %Control @1000nM): 92%; difference in %Control versus Ib at 1 µM ([1]; @1000nM, read-out: % difference (compound - Ib %Control)): 8%; remaining binding at 1 µM ([1]; @1000nM, read-out: %Control): 96%; remaining binding at 1 µM ([1]; read-out: %Control @1000nM): 96%; difference in %Control versus compound Ib at 1 µM (FLT3(N841I); @1000nM): 37%; remaining binding at 1 µM (FLT3(N841I); @1000nM, read-out: %Control): 56%; remaining binding at 1 µM (FLT3(N841I); read-out: %Control @1000nM): 56%; NanoBRET IC50 (wild-type BTK): low to subnanomolar; difference in %Control versus reference compound Ib at 1 µM (EGFR; @1000nM, EGFR): 16.8%; remaining binding at 1 µM (EGFR; @1000nM, EGFR, read-out: %Control): 17%; remaining binding at 1 µM (EGFR; EGFR, read-out: %Control @1000nM): 17%; inhibition at 1 µM (EGFR; ScanTK, 1 μM, WT EGFR): 83%; %Control @1000nM (FLT3(ITD,D835V)): 70%; % difference (compound - Ib %Control) (FLT3(ITD,D835V); @1000nM): -7%; %Control (FLT3(ITD,D835V); @1000nM): 70%; difference in %Control versus compound Ib at 1 µM (ERBB4; @1000nM): 0.05%; remaining binding at 1 µM (ERBB4; @1000nM, read-out: %Control): 0.1%; remaining binding at 1 µM (ERBB4; read-out: %Control @1000nM): 0.1%; remaining binding at 1 µM (RET; @1000nM, read-out: %Control): 31%; remaining binding at 1 µM (RET; read-out: %Control @1000nM): 31%
